Values quoted from earlier work, collected in publication PMC10386743, “Application of Ligand- and Structure-Based Prediction Models for the Design of Alkylhydrazide-Based HDAC3 Inhibitors as Novel Anti-Cancer Compounds” (Pharmaceuticals, 2023).

tested on: HDAC3; conditions: experimentally determined

SMILES | activity on HDAC3 (in words)
CCCCCCNNC(=O)c1ccc(CNC(C)=O)cc1 [Compound 69] | did not show significant activity

same assay, conditions: newly designed compounds

SMILES | pIC50 HDAC3 (HDAC3 experimental pIC50)
CCCCCCNNC(=O)c1cnc(NCc2ccc(CNC(C)=O)cc2)nc1 [Compound 84] | <5.00
CCCCCCNNC(=O)c1ccc(CNC(C)=O)cc1 [Compound 69] | <5.00
CCCNNC(=O)c1cnc(NCc2ccccc2)nc1 [Compound 72] | 7.37
CCCNNC(=O)c1cnc(N2CCN(C)CC2)nc1 [Compound 79] | 6.92
CCCCCCNNC(=O)c1ccc(-c2ccc(CNC(C)=O)cc2)cc1 [Compound 67] | <5.00

Now from value to compound:

pIC50 HDAC3 (HDAC3 experimental pIC50) | SMILES
7.00 | CCCCCCNNC(=O)c1cnc(N2CCN(Cc3c[nH]c4ccccc34)CC2)nc1 [Compound 86]
5.85 | CCCCCCNNC(=O)c1cnc(N2CCN(CCc3cn(C)c4ccccc34)CC2)nc1 [Compound 89]
7.52 | CCCNNC(=O)c1cnc(N2CCN(Cc3c[nH]c4ccccc34)CC2)nc1 [Compound 85]
6.52 | CCCCCCNNC(=O)c1cnc(N2CCN(Cc3cn(C)c4ccccc34)CC2)nc1 [Compound 87]
